{"source": "patent US8952024B2", "about": "“Herbicidal pyrimidone derivatives” (E I du Pont de Nemours and Company, priority 2009, dated 2015)", "type_in_all_cases": "in vivo", "key": {"[1]": {"tested_on": "green foxtail (Setaria viridis)", "assay": "Test B pre-/postemergence plant response", "conditions": "for Plant response rating, Foxtail, Green: Postemergence", "in_short": "(§1)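 Visual injury, 0–100 scale (100 = complete control), rated against controls after 13 to 15 days in greenhouse. Pre-emergence: seeds in loam/sand soil, treated at planting. Post-emergence: 1- to 4-leaf plants (2 to 18 cm) in peat/vermiculite medium. Compounds formulated in non-phytotoxic solvent with surfactant.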"}, "[2]": {"tested_on": "pigweed (Amaranthus retroflexus)", "assay": "Test B pre-/postemergence plant response", "conditions": "for Plant response rating, Pigweed: Postemergence", "in_short": "as §1"}, "[3]": {"tested_on": "cocklebur (Xanthium strumarium)", "assay": "Test B pre-/postemergence plant response", "conditions": "for Plant response rating, Cocklebur: Postemergence", "in_short": "as §1"}, "[4]": {"tested_on": "giant foxtail (Setaria faberii)", "assay": "Test B pre-/postemergence plant response", "conditions": "for Plant response rating, Foxtail, Giant: Postemergence", "in_short": "as §1"}, "[5]": {"tested_on": "goosegrass (Eleusine indica)", "assay": "Test B pre-/postemergence plant response", "conditions": "for Plant response rating, Goosegrass: Postemergence", "in_short": "as §1"}, "[6]": {"tested_on": "morningglory (Ipomoea coccinea)", "assay": "Test B pre-/postemergence plant response", "conditions": "for Plant response rating, Morningglory: Postemergence", "in_short": "as §1"}, "[7]": {"tested_on": "downy bromegrass (Bromus tectorum)", "assay": "Test B pre-/postemergence plant response", "conditions": "for Plant response rating, Bromegrass, Downy: Postemergence", "in_short": "as §1"}, "[8]": {"tested_on": "wheat (Triticum aestivum)", "assay": "Test B pre-/postemergence plant response", "conditions": "for Plant response rating, Wheat: Postemergence", "in_short": "as §1"}, "kochia (Kochia scoparia)": {"tested_on": "kochia (Kochia scoparia)", "assay": "Test B pre-/postemergence plant response", "conditions": "for Plant response rating, Kochia: Postemergence", "in_short": "as §1"}, "[9]": {"tested_on": "large crabgrass (Digitaria sanguinalis)", "assay": "Test A pre-/postemergence plant response", "in_short": "(§2)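 Seeds planted in loam soil/sand blend; test chemicals in non-phytotoxic solvent mixture with surfactant applied as directed soil spray preemergence and, concurrently, postemergence to plants 2–10 cm tall at one- to two-leaf stage. Greenhouse ~10 days; visual injury vs untreated controls, 0 (no effect) to 100 (complete control).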"}, "[10]": {"tested_on": "wheat (Triticum aestivum)", "assay": "Test A pre-/postemergence plant response", "in_short": "as §2"}, "[11]": {"tested_on": "velvetleaf (Abutilon theophrasti)", "assay": "Test A pre-/postemergence plant response", "in_short": "as §2"}, "[12]": {"tested_on": "morningglory (Ipomoea spp.)", "assay": "Test A pre-/postemergence plant response", "in_short": "as §2"}, "[13]": {"conditions": "62 g ai/ha, postemergence, 0 is no effect, 100 is complete control, 13 to 15 days"}, "[14]": {"conditions": "31 g ai/ha, 0 to 100 scale (0 no effect, 100 complete control)"}, "[15]": {"conditions": "125 g ai/ha, scale 0 to 100 (0 no effect, 100 complete control)"}, "[16]": {"conditions": "Postemergence, 125 g ai/ha, 0 to 100 scale where 0 is no effect and 100 is complete control"}, "[17]": {"conditions": "Postemergence, 500 g ai/ha, 0 to 100 scale, 0 = no effect, 100 = complete control, approx. ten days"}, "[18]": {"conditions": "Preemergence, 125 g ai/ha, 0 to 100 scale, 0 = no effect, 100 = complete control"}, "[19]": {"conditions": "Preemergence, 500 g ai/ha, visual injury, 0 to 100 scale (0 no effect, 100 complete control), approx. ten days"}}, "data": [{"smiles": "CCn1c(-c2cc(F)cc(F)c2)ncc(C(=O)C2=C(O)CCCC2=O)c1=O", "note": "[Compound 122]", "values": [{"measurement": "Plant response rating, Foxtail, Green", "setting": "[1]; 16 g ai/ha, 0 to 100 scale", "value": 40}, {"measurement": "Foxtail, Green plant response rating (0 to 100 scale)", "setting": "[1]; [13]", "value": 85}, {"measurement": "Plant response rating, Foxtail, Green", "setting": "[1]; [14]", "value": 80}, {"measurement": "Plant response rating, Foxtail, Green", "setting": "[1]; [15]", "value": 85}, {"measurement": "Plant response rating, Pigweed", "setting": "[2]; 16 g ai/ha, 0 to 100 scale", "value": 75}, {"measurement": "Pigweed plant response rating (0 to 100 scale)", "setting": "[2]; [13]", "value": 90}, {"measurement": "Plant response rating, Pigweed", "setting": "[2]; [14]", "value": 85}, {"measurement": "Plant response rating, Pigweed", "setting": "[2]; [15]", "value": 98}, {"measurement": "Plant response rating, Cocklebur", "setting": "[3]; 16 g ai/ha, 0 to 100 scale", "value": 0}, {"measurement": "Cocklebur plant response rating (0 to 100 scale)", "setting": "[3]; [13]", "value": 45}, {"measurement": "Plant response rating, Cocklebur", "setting": "[3]; [14]", "value": 20}, {"measurement": "Plant response rating, Cocklebur", "setting": "[3]; [15]", "value": 85}, {"measurement": "Plant response rating, Foxtail, Giant", "setting": "[4]; 16 g ai/ha, 0 to 100 scale", "value": 65}, {"measurement": "Foxtail, Giant plant response rating (0 to 100 scale)", "setting": "[4]; [13]", "value": 75}, {"measurement": "Plant response rating, Foxtail, Giant", "setting": "[4]; [14]", "value": 70}, {"measurement": "Plant response rating, Foxtail, Giant", "setting": "[4]; [15]", "value": 80}, {"measurement": "Plant response rating, Goosegrass", "setting": "[5]; 16 g ai/ha, 0 to 100 scale", "value": 10}, {"measurement": "Goosegrass plant response rating (0 to 100 scale)", "setting": "[5]; [13]", "value": 65}, {"measurement": "Plant response rating, Goosegrass", "setting": "[5]; [14]", "value": 40}, {"measurement": "Plant response rating, Goosegrass", "setting": "[5]; [15]", "value": 70}, {"measurement": "Plant response rating, Morningglory", "setting": "[6]; 16 g ai/ha, 0 to 100 scale", "value": 55}, {"measurement": "Morningglory plant response rating (0 to 100 scale)", "setting": "[6]; [13]", "value": 75}, {"measurement": "Plant response rating, Morningglory", "setting": "[6]; [14]", "value": 60}, {"measurement": "Plant response rating, Morningglory", "setting": "[6]; [15]", "value": 85}, {"measurement": "Plant response rating, Bromegrass, Downy", "setting": "[7]; 16 g ai/ha, 0 to 100 scale", "value": 5}, {"measurement": "Bromegrass, Downy plant response rating (0 to 100 scale)", "setting": "[7]; [13]", "value": 5}, {"measurement": "Plant response rating, Bromegrass, Downy", "setting": "[7]; [14]", "value": 5}, {"measurement": "Plant response rating, Bromegrass, Downy", "setting": "[7]; [15]", "value": 50}, {"measurement": "Plant response rating, Wheat", "setting": "[8]; 16 g ai/ha, 0 to 100 scale", "value": 5}, {"measurement": "Wheat plant response rating (0 to 100 scale)", "setting": "[8]; [13]", "value": 30}, {"measurement": "Plant response rating, Wheat", "setting": "[8]; [14]", "value": 15}, {"measurement": "Plant response rating, Wheat", "setting": "[8]; [15]", "value": 50}, {"measurement": "Plant response rating, Kochia", "setting": "kochia (Kochia scoparia); 16 g ai/ha, 0 to 100 scale", "value": 0}, {"measurement": "Kochia plant response rating (0 to 100 scale)", "setting": "kochia (Kochia scoparia); [13]", "value": 0}, {"measurement": "Plant response rating, Kochia", "setting": "kochia (Kochia scoparia); [14]", "value": 0}, {"measurement": "Plant response rating, Kochia", "setting": "kochia (Kochia scoparia); [15]", "value": 45}, {"measurement": "Plant response rating, Crabgrass, Large", "setting": "[9]; [16]", "value": 70}, {"measurement": "Plant response rating, Crabgrass, Large", "setting": "[9]; [17]", "value": 90}, {"measurement": "Plant response rating, Crabgrass, Large", "setting": "[9]; [18]", "value": 90}, {"measurement": "Plant response rating, Crabgrass, Large", "setting": "[9]; [19]", "value": 100}, {"measurement": "Plant response rating, Wheat", "setting": "[10]; [16]", "value": 0}, {"measurement": "Plant response rating, Wheat", "setting": "[10]; [17]", "value": 50}, {"measurement": "Plant response rating, Wheat", "setting": "[10]; [18]", "value": 0}, {"measurement": "Plant response rating, Wheat", "setting": "[10]; [19]", "value": 40}, {"measurement": "Plant response rating, Velvetleaf", "setting": "[11]; [16]", "value": 100}, {"measurement": "Plant response rating, Velvetleaf", "setting": "[11]; [17]", "value": 100}, {"measurement": "Plant response rating, Velvetleaf", "setting": "[11]; [18]", "value": 100}, {"measurement": "Plant response rating, Velvetleaf", "setting": "[11]; [19]", "value": 100}, {"measurement": "Plant response rating, Morningglory", "setting": "[12]; [16]", "value": 90}, {"measurement": "Plant response rating, Morningglory", "setting": "[12]; [17]", "value": 100}, {"measurement": "Plant response rating, Morningglory", "setting": "[12]; [18]", "value": 40}, {"measurement": "Plant response rating, Morningglory", "setting": "[12]; [19]", "value": 80}]}]}
